# Literature values in patent US20210212947A1, “Docetaxel palmitate liposome and preparation method thereof” (SHANGHAI WEI ER BIOPHARMACEUTICAL TECH CO., LTD., priority 2018, published 2021).
# Legend:
# [1] = times that of paclitaxel
compound,measurement,setting,value
"CC(=O)OC12COC1CC(O)C1(C)C(=O)C(O)C3=C(C)C(OC(=O)C(O)C(NC(=O)OC(C)(C)C)c4ccccc4)CC(O)(C(OC(=O)c4ccccc4)C21)C3(C)C (stereo not drawn) [Docetaxel, [2aR-(2aα,4β,4aβ,6β,9α(aR*,βS*),11a,12a,12aα,12bα)]-β-[[(1,1dimethylethyl (Oxy)carbonyl]amino]-α-hydroxyphenylpropionic acid [12b-acetoxy-12-benzoyloxy-2a,3,4,4a,5,6,9,10,11,12,12a,12b -Dodecahydro-4,6,11-trihydroxy-4a,8,13,13-tetramethyl-5-oxo-7,11-methylene-1H-cyclodecpentaeno [3,4]Benzo [1,2-b]oxetane-9-yl]ester]",solubility in organic solvents,"organic solvents such as ethanol, acetone, ether and benzene",soluble
same,solubility in water,water,insoluble
same,anti-tumor activity relative to paclitaxel,[1],1.3-12 times
